Data published in US20250082660A1 (priority 2023, published 2025).
Counter-ions that a name gives are not always drawn. Like-named read-outs stand apart in the source and are kept apart here.

How the values were obtained:
[1] = biological target: T1, cytosolic phospholipase A2 (cPLA2, PLA2G4) (Homo sapiens, UniProt P47712); experiment: cPLA2 phosphorylation
T1 sequence (P47712 1-749): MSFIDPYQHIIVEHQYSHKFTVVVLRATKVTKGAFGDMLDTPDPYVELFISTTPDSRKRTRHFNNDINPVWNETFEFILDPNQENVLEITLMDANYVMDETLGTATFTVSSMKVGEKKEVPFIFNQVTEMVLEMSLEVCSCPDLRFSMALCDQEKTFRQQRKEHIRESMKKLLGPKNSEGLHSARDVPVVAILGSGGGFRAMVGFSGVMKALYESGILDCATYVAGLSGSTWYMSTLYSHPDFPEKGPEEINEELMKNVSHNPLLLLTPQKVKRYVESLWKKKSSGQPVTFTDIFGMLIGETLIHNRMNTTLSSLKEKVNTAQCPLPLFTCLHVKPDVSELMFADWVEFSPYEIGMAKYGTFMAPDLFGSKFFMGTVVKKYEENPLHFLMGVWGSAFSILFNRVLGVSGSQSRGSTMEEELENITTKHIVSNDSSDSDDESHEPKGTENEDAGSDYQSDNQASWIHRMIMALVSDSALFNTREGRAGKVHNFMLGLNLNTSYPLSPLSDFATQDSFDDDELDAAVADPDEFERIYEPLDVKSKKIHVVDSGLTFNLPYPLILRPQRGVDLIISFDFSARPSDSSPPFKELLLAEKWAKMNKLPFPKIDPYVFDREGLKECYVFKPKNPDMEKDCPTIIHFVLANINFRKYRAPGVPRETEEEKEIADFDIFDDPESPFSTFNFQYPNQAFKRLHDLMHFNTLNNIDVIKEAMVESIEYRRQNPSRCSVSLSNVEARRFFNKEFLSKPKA

CYP1A1 enzyme = biological target: T2, CYP1A1 enzyme (Homo sapiens, UniProt P04798); conditions: cited from earlier work
T2 sequence (P04798 1-512): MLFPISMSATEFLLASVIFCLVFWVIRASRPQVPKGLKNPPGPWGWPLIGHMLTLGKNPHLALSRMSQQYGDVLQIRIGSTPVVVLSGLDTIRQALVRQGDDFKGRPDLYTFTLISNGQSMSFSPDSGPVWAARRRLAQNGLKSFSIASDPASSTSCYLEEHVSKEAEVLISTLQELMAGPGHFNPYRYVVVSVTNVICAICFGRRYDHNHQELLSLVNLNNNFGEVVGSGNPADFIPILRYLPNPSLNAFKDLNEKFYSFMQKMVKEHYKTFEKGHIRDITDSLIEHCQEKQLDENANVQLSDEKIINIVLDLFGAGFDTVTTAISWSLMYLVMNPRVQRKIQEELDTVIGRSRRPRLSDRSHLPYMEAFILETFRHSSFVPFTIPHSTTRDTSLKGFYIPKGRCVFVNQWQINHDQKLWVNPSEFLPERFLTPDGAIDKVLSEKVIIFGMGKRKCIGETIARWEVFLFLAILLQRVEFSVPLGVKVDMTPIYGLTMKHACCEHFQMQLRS

[2] = cited from earlier work
[3] = test system: loperamide-induced acute model mice; assay type: in vivo, C57BL/6J Mus musculus; conditions: oral loperamide 2.5 mg/kg, 0-9 h after treatment, mean±SEM, n=6
Protocol: Six-week-old male (18-22 g) C57BL/6J Mus musculus were obtained from Laboratory Animal Services Center, The Chinese University of Hong Kong. All mice were housed in an environmentally controlled room (22±1° C.; ˜ 50% relative humidity) with a 12-h light-dark cycle, and fed a normal rodent diet and water. Animal care was approved by the Committee on the Use of Human and Animal Subjects in Teaching and Research, Hong Kong Baptist University (REC/19-20/0300).
Mice were randomly assigned to the following four groups (n=6 per group): control group, loperamide group, loperamide+CDD-2101 group, and loperamide+Senna group. The mice in the control group were only orally treated with Milli-Q water. The other groups were orally administrated with loperamide (2.5 mg/kg body weight). CDD-2101 and Senna were administered based on the clinical dosages of MZRW and Senna, respectively, used in constipation patients. The CDD-2101 group was orally administered with 30 g/d/kg body weight. The Senna group was given 8 tablets/day.
All fecal pellets produced during the first 5 min were discarded. Then fecal samples were collected, and the frequency was recorded for the next 9 h. Fecal pellets were put into tubes set in dry ice. After collection, they were stored at −80° C. for further use. Gastrointestinal motility was calculated from pellet frequency. The secretion was determined by pellet water content.

ALOX5 = biological target: T3, ALOX5 (Homo sapiens, UniProt P09917); conditions: in vitro and in vivo; cited from earlier work
T3 sequence (P09917 1-674): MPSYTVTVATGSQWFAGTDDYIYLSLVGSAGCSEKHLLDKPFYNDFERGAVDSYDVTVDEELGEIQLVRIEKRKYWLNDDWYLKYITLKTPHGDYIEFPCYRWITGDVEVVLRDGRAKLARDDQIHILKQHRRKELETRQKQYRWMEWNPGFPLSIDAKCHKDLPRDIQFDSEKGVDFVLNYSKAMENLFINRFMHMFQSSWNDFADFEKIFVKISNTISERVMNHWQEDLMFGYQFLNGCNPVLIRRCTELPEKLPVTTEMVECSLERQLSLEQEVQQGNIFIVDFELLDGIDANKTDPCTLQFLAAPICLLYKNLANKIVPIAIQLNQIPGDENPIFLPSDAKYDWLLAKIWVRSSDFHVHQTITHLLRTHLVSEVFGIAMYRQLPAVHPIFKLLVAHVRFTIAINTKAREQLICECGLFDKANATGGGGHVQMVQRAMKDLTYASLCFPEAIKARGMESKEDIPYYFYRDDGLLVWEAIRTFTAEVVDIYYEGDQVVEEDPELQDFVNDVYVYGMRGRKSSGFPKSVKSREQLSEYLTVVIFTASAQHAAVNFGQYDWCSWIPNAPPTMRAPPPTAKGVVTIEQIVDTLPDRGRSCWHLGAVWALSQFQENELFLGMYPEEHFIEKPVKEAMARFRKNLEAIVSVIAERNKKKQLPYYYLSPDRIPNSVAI

CYP1A2 = biological target: T4, CYP1A2 (Homo sapiens, UniProt P05177); conditions: cited from earlier work
T4 sequence (P05177 1-516): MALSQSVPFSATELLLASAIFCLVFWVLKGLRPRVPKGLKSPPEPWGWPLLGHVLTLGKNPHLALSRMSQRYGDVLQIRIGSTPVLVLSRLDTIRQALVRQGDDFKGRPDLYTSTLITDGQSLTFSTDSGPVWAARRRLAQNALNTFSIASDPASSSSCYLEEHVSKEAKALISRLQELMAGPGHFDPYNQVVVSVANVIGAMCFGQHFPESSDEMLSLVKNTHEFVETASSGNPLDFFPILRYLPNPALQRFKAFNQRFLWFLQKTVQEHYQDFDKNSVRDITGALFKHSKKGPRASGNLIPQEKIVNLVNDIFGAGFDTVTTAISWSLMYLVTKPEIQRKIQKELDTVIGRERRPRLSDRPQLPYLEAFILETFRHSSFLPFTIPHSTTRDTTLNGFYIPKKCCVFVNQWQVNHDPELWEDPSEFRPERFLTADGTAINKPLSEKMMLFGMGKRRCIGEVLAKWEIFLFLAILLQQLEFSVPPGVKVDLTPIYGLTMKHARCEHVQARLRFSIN

[4] = Fecal phytochemistry: metabolism of Senna ingredients; assay type: in vivo, C57BL/6J Mus musculus; conditions: Senna group, feces
Text: First, the phytochemical compounds in CDD-2101 and feces were characterized using the UHPLC/Q-TOF-MS with the same parameters as for the metabolomics analysis described in section 1.4. Potential active compounds were selected because of their frequent use in pharmacology study, and their high abundance in CDD-2101 and feces. Those compounds were confirmed by commercial standards. Second, the biological targets of these compounds were gathered by searching in BindingDB (https://www.bindingdb.org/) and STITCH (http://stitch.embl.de/). The candidate targets of constipation were gathered by searching on the keyword “constipation” in GeneCards (https://www.genecards.org/). Third, these targets were manually checked in full texts of relevant references. The confirmed proteins were considered to be the predicted targets of CDD-2101 against constipation.

C[C@]12C[C@@H](O)[C@@H]3C[C@@]1(O[C@@H]1O[C@H](CO)[C@@H](O)[C@H](O)[C@H]1O)[C@@]3(COC(=O)c1ccccc1)C(=O)O2 [albiflorin]
cPLA2 (PLA2G4) phosphorylation [1]: stimulated

COc1ccc([C@@H]2CC(=O)c3c(O)cc(O)cc3O2)cc1O [hesperetin]
binding to CYP1A1 enzyme (CYP1A1 enzyme): bind

COc1ccc([C@@H]2CC(=O)c3c(O)cc(O[C@@H]4O[C@H](CO[C@@H]5O[C@@H](C)[C@H](O)[C@@H](O)[C@H]5O)[C@@H](O)[C@H](O)[C@H]4O)cc3O2)cc1O [hesperidin]
metabolite formed in the colon [2]: hesperetin

CN(C)C(=O)C(CCN1CCC(O)(c2ccc(Cl)cc2)CC1)(c1ccccc1)c1ccccc1 [loperamide, Loperamide hydrochloride]
cumulative number of fecal pellet [3]: 21.5±2.7 pellets/9 h | fecal pellet water content [3]: 48.2±2.1%

C=CCc1ccc(O)c(-c2cc(CC=C)ccc2O)c1 [magnolol]
cPLA2 (PLA2G4) phosphorylation [1]: stimulated | inhibition of ALOX5 enzyme (ALOX5): strongly inhibit | binding to CYP1A1 enzyme (CYP1A1 enzyme; reported): bind | inhibition of CYP1A2 enzyme (CYP1A2): strongly inhibit

O=C1C[C@@H](c2ccc(O)cc2)Oc2cc(O)cc(O)c21 [naringenin]
binding to CYP1A1 enzyme (CYP1A1 enzyme): bind

O=C(O)c1cc(O)c2c(c1)[C@H]([C@H]1c3cc(C(=O)O)cc(O)c3C(=O)c3c(O[C@@H]4O[C@H](CO)[C@@H](O)[C@H](O)[C@H]4O)cccc31)c1cccc(O[C@@H]3O[C@H](CO)[C@@H](O)[C@H](O)[C@H]3O)c1C2=O [sennoside A]
metabolite formed [4]: rhein

O=C(O)c1cc(O)c2c(c1)[C@@H]([C@H]1c3cc(C(=O)O)cc(O)c3C(=O)c3c(O[C@@H]4O[C@H](CO)[C@@H](O)[C@H](O)[C@H]4O)cccc31)c1cccc(O[C@@H]3O[C@H](CO)[C@@H](O)[C@H](O)[C@H]3O)c1C2=O [sennoside B]
metabolite formed [4]: rhein
